# Measured values published in US9416347B2, “Method of treating bacterial contamination in a microalgae culture with pH shock” (Heliae Development LLC, priority 2014, dated 2016).
# Where two headings read alike, the source gives them in different places.
# Experiments:
# [1] = system: Chlorella sp.; conditions: culture at 1,029 mg/L acetate, pH 3.5 for 15 minutes, returned to 7.5 with 2 M NaOH
# Experimental: The pH treated culture samples were maintained at the culture pH of 3.5 for 15 minutes before returning the culture pH to 7.5 by adding 2 M NaOH.
# The pH treatment was applied directly into the culture, without previous concentration or subsequent dilution through inoculation into a fresh media. All cultures were incubated with shaking at 100 rpm in 5% carbon dioxide and 25° C. […] 100 μM photon/m^2 s of light was also provided to create mixotrophic growth conditions. The cultures were monitored for 4 days (96 hours with dry weight samples taken at 0, 48, and 96 hours). Residual acetate analyses were carried at the end of the experiment.
# [2] = system: Chlorella sp.; conditions: pH lowered from about 7.5 to 3.5 for 15 minutes, raised back with 5M NaOH
# Experimental: The first 400 ml culture was maintained as an untreated control at a pH of about 7.5. […] The pH treatments were applied directly to the cultures, without previous concentration of the microalgae or subsequent dilution through inoculation into fresh culture media. All cultures were incubated with shaking at 100 rpm in 5% carbon dioxide and 25° C. […] 100 μM photon/m^2 s of light was also provided to create mixotrophic growth conditions. The cultures were monitored for 4 days (96 hours with dry weight samples taken at 0, 48, and 96 hours). Live bacteria count samples were taken at 0 and 48 hours, and quantified using aerobic colony forming units (CFU) obtained from plate counts utilizing Petrifilm available from 3M (St. Paul, Minn.). A bacteria to microalgae ratio was also quantified using guava flow cytometry.
# [3] = in water; cited from earlier work
# [4] = system: Chlorella sp.
# Experimental: 100 mL volume cultures were prepared in 250 mL flasks, and cultured at a temperature of 25° C., a shaking frequency of 100 rpm, and a light intensity of 100 μM photon/m^2 s for 7 days (168 hours). The cultures were inoculated into two times BG-11 culture media at a cell density of 1.12 g/L. The different treatments of sodium acetate consisted of concentrations of 0, 2.5, 5, 7.5, 10, 20, 30, and 40 g/L. Samples were taken every 24 hours to measure the cell dry weights (g/L) of the cultures.
# [5] = system: live bacteria in mixotrophic culture of Chlorella; conditions: for Total live bacteria count: pH lowered to 3.5 with hydrochloric acid
# Experimental: The 2 L sample was split into equal 1 L cultures in flasks, and incubated at 25° C. and 100 rpm (shaking) for 24 hours to allow metabolization of any residual acetate in the cultures. The two cultures were then blended together and then separated into equal 1 L cultures to ensure homogeneity in the two cultures. […] Samples were taken from both cultures to quantify the initial live bacteria count and subsequent counts using aerobic colony forming units (CFU) obtained from plate counts utilizing Petrifilm available from 3M (St. Paul, Minn.).
structure (smiles),measurement,setting,value
"CC(=O)O [Acetic acid, acetic acid]",Cell Dry Weight,[1]; 0 h,0.80 ± 0.02 g/L
same,Cell Dry Weight,[1]; 48 h,0.78 ± 0.06 g/L
same,Cell Dry Weight,[1]; 96 h,0.89 ± 0.01 g/L
same,cell dry weight,[2]; 0 h,0.76 ± 0.00 g/L
same,cell dry weight,[2]; 48 h,1.73 ± 0.04 g/L
same,cell dry weight,[2]; 96 h,3.46 ± 0.09 g/L
O=C(O)CC(O)C(=O)O (centres unmarked) [malic acid],pKa,[3],about 3.4
CCCCCCCCCCCCCCCC(=O)O [palmitic acid],pKa,[3],about 4.7
CC(=O)C(=O)O [pyruvic acid],pKa,[3],about 2.5
CC(=O)[O-].[Na+] [sodium acetate],Growth of Chlorella,[4]; 2.5 g/L sodium acetate,0.620 g/L day
same,Cell dry weights of treatments by Concentration of Sodium Acetate,"[4]; 2.5 g/L sodium acetate, 0 h",0.12 g/L
same,Cell dry weights of treatments by Concentration of Sodium Acetate,"[4]; 2.5 g/L sodium acetate, 24 h",0.23 g/L
same,Cell dry weights of treatments by Concentration of Sodium Acetate,"[4]; 2.5 g/L sodium acetate, 48 h",0.85 g/L
same,Cell dry weights of treatments by Concentration of Sodium Acetate,"[4]; 2.5 g/L sodium acetate, 72 h",1.10 g/L
same,Cell dry weights of treatments by Concentration of Sodium Acetate,"[4]; 2.5 g/L sodium acetate, 144 h",2.72 g/L
same,Cell dry weights of treatments by Concentration of Sodium Acetate,"[4]; 2.5 g/L sodium acetate, 168 h",3.23 g/L
same,Growth of Chlorella,[4]; 5 g/L sodium acetate,0.065 g/L day
same,Cell dry weights of treatments by Concentration of Sodium Acetate,"[4]; 5 g/L sodium acetate, 0 h",0.12 g/L
same,Cell dry weights of treatments by Concentration of Sodium Acetate,"[4]; 5 g/L sodium acetate, 24 h",0.19 g/L
same,Cell dry weights of treatments by Concentration of Sodium Acetate,"[4]; 5 g/L sodium acetate, 48 h",0.25 g/L
same,Cell dry weights of treatments by Concentration of Sodium Acetate,"[4]; 5 g/L sodium acetate, 72 h",0.55 g/L
same,Cell dry weights of treatments by Concentration of Sodium Acetate,"[4]; 5 g/L sodium acetate, 144 h",1.89 g/L
same,Cell dry weights of treatments by Concentration of Sodium Acetate,"[4]; 5 g/L sodium acetate, 168 h",2.41 g/L
same,Cell dry weights of treatments by Concentration of Sodium Acetate,"[4]; 7.5 g/L sodium acetate, 0 h",0.12 g/L
same,Cell dry weights of treatments by Concentration of Sodium Acetate,"[4]; 7.5 g/L sodium acetate, 24 h",0.17 g/L
same,Cell dry weights of treatments by Concentration of Sodium Acetate,"[4]; 7.5 g/L sodium acetate, 48 h",0.15 g/L
same,Cell dry weights of treatments by Concentration of Sodium Acetate,"[4]; 7.5 g/L sodium acetate, 72 h",0.13 g/L
same,Cell dry weights of treatments by Concentration of Sodium Acetate,"[4]; 7.5 g/L sodium acetate, 144 h",0.10 g/L
same,Cell dry weights of treatments by Concentration of Sodium Acetate,"[4]; 7.5 g/L sodium acetate, 168 h",0.07 g/L
same,Cell dry weights of treatments by Concentration of Sodium Acetate,"[4]; 10 g/L sodium acetate, 0 h",0.12 g/L
same,Cell dry weights of treatments by Concentration of Sodium Acetate,"[4]; 10 g/L sodium acetate, 24 h",0.13 g/L
same,Cell dry weights of treatments by Concentration of Sodium Acetate,"[4]; 10 g/L sodium acetate, 48 h",0.16 g/L
same,Cell dry weights of treatments by Concentration of Sodium Acetate,"[4]; 10 g/L sodium acetate, 72 h",0.11 g/L
same,Cell dry weights of treatments by Concentration of Sodium Acetate,"[4]; 10 g/L sodium acetate, 144 h",0.09 g/L
same,Cell dry weights of treatments by Concentration of Sodium Acetate,"[4]; 10 g/L sodium acetate, 168 h",0.00 g/L
same,Cell dry weights of treatments by Concentration of Sodium Acetate,"[4]; 20 g/L sodium acetate, 0 h",0.12 g/L
same,Cell dry weights of treatments by Concentration of Sodium Acetate,"[4]; 20 g/L sodium acetate, 24 h",0.16 g/L
same,Cell dry weights of treatments by Concentration of Sodium Acetate,"[4]; 20 g/L sodium acetate, 48 h",0.13 g/L
same,Cell dry weights of treatments by Concentration of Sodium Acetate,"[4]; 20 g/L sodium acetate, 72 h",0.12 g/L
same,Cell dry weights of treatments by Concentration of Sodium Acetate,"[4]; 20 g/L sodium acetate, 144 h",0.07 g/L
same,Cell dry weights of treatments by Concentration of Sodium Acetate,"[4]; 20 g/L sodium acetate, 168 h",0.00 g/L
same,Cell dry weights of treatments by Concentration of Sodium Acetate,"[4]; 30 g/L sodium acetate, 0 h",0.12 g/L
same,Cell dry weights of treatments by Concentration of Sodium Acetate,"[4]; 30 g/L sodium acetate, 24 h",0.14 g/L
same,Cell dry weights of treatments by Concentration of Sodium Acetate,"[4]; 30 g/L sodium acetate, 48 h",0.11 g/L
same,Cell dry weights of treatments by Concentration of Sodium Acetate,"[4]; 30 g/L sodium acetate, 72 h",0.09 g/L
same,Cell dry weights of treatments by Concentration of Sodium Acetate,"[4]; 30 g/L sodium acetate, 144 h",0.08 g/L
same,Cell dry weights of treatments by Concentration of Sodium Acetate,"[4]; 30 g/L sodium acetate, 168 h",0.00 g/L
same,Cell dry weights of treatments by Concentration of Sodium Acetate,"[4]; 40 g/L sodium acetate, 0 h",0.12 g/L
same,Cell dry weights of treatments by Concentration of Sodium Acetate,"[4]; 40 g/L sodium acetate, 24 h",0.11 g/L
same,Cell dry weights of treatments by Concentration of Sodium Acetate,"[4]; 40 g/L sodium acetate, 48 h",0.09 g/L
same,Cell dry weights of treatments by Concentration of Sodium Acetate,"[4]; 40 g/L sodium acetate, 72 h",0.10 g/L
same,Cell dry weights of treatments by Concentration of Sodium Acetate,"[4]; 40 g/L sodium acetate, 144 h",0.09 g/L
same,Cell dry weights of treatments by Concentration of Sodium Acetate,"[4]; 40 g/L sodium acetate, 168 h",0.00 g/L
same,tolerance limit for this strain of Chlorella,[4]; as restated in Example 10,7500 mg/L
same,Growth of Chlorella,[4]; concentrations of 7.5 g/L and higher,did not show any growth
same,acetate concentration tolerance for Chlorella,"[4]; mixotrophic flask culture, 7 days",approximately 7.5 g/L
same,live bacteria counts (below detection),"[5]; 2.5 g/L sodium acetate, pH 3.5 with HCl, after 60 minutes","< 1,000 CFU/ml"
same,live bacteria,"[5]; 2.5 g/L sodium acetate, pH 3.5 with HCl, after 180 minutes",no measurable live bacterium
same,Total live bacteria count,"[5]; 2.5 g/L sodium acetate, 0 min",5.00E+06 CFU
same,Total live bacteria count,"[5]; 2.5 g/L sodium acetate, 5 min",8.00E+04 CFU
same,Total live bacteria count,"[5]; 2.5 g/L sodium acetate, 15 min",4.00E+04 CFU
same,Total live bacteria count,"[5]; 2.5 g/L sodium acetate, 30 min",none detected
same,Total live bacteria count,"[5]; 2.5 g/L sodium acetate, 60 min",1.00E+03 CFU
same,Total live bacteria count,"[5]; 2.5 g/L sodium acetate, 180 min",1.00E+03 CFU
same,reduction in live bacteria,"[5]; sodium acetate present and treated with second acid, after 60 minutes",3.5 order of magnitude
